In patent US12473284B2, “Small molecule inhibitors of ULK1” (Memorial Sloan Kettering Cancer Center, priority 2019, dated 2025):

Experiments:
[1] = target: ULK1/Atg13 kinase complex (Homo sapiens (Human), UniProt O75385); test: In vitro kinase assay (Kinase-Glo Plus luminescence, MBP 1-20 peptide substrate); assay type: biochemical; conditions: recombinant His-tagged ULK1/Atg13, 75 min at room temperature; salt form as in Table 1
Procedure: In vitro kinase assays were performed as described below:
Recombinant His-tagged ULK1/Atg13 kinase complex was expressed in […] insect cells, and affinity-purified by Ni-NTA beads, aliquoted and stored at −80° C.
Compounds were dissolved in DMSO to make 10 mM stock solution, aliquoted and stored at −80° C.
1× kinase buffer was prepared: 20 mM Tris-HCl, pH7.5, 100 mM NaCl, 5 mM MgCl2, 0.5 mg/ml BSA, 5 mM DTT, 0.1% Tween-20.
For compound screening experiment, 1 μl of the 10 mM compound stock solution was added using P2.5 pipette into 99 μl 1×kinase buffer to make 100 μM working solution.
For compound titration experiment, 100 μM compound solution was further diluted (with 1×kinase buffer containing 1% DMSO) in a series manner.
30 mM MBP (Myelin basic protein) 1-20 peptide (sequence: […]; SEQ ID NO: 1) was prepared in 1× kinase buffer.
500 μM ATP was prepared in 1× kinase buffer.
Pre-incubation reactions were set up as shown in the Table below and pre-incubated for 10 min at room temperature.
4 μl of 500 μM ATP was added to the pre-incubation reaction (thus the final reaction volume is 20 μl) and incubated for 75 min at room temperature.
20 μl Kinase-Glo Plus (Promega) was added to the reaction (warmed to RT), mixed well and incubated at room temperature for 15 min.
20 μl reaction was pipetted into each well of a white 384-well plate.
the 384-well plate was subjected to brief centrifugation, and luminescence was read in a plate reader.
Calculated inhibition (%) was calculated as follows: […]

protein kinase CDK7 = protein kinase CDK7 (Homo sapiens (Human), UniProt P50613); test: Inhibition of protein kinase CDK7; assay type: biochemical
MiaCaPa-2 cancer cells = test: MiaCaPa-2 pancreatic ductal adenocarcinoma (PDAC) cell line xenograft mice model; assay type: in vivo; conditions: MSK-A170-PEAK2 10 mg/kg + trametinib 0.5 mg/kg, i.p., 6 days a week, 17 days, female athymic nude mice
Procedure: FIG. 1 illustrates the final tumor weights for four groups on mice in a MiaCaPa-2 cell line xenograft mouse model, where “Control” group mice were treated 6 days a week, i.p., for 17 days with dosing vehicle; “ULK1i” group mice were treated 6 days a week, i.p., for 17 days with a compound of the present technology, 10 mg/kg; “MEKi” group mice were treated 6 days a week, i.p., for 17 days with MEK1 inhibitor trametinib, 0.5 mg/kg; “ULK1i+MEKi” group mice were treated 6 days a week, i.p., for 17 days with a combination of the compound of the present technology (10 mg/kg) and trametinib (0.5 mg/kg), according to the working examples.
FIG. 2 provides the tumor volume over time for each group of the xenograft mouse model study that provided the data of FIG. 1, according to the working examples.
Female athymic nude (Foxn1^nu) mice were implanted with 2×10^6 MiaCaPa-2 cancer cells per animal subcutaneously at the right flank. […] The tumor volume was measured on 1, 3, 5, 7, 9, 11, 13, 15, and 17. […]

Sequence of ULK1/Atg13 kinase complex (O75385 whole entry): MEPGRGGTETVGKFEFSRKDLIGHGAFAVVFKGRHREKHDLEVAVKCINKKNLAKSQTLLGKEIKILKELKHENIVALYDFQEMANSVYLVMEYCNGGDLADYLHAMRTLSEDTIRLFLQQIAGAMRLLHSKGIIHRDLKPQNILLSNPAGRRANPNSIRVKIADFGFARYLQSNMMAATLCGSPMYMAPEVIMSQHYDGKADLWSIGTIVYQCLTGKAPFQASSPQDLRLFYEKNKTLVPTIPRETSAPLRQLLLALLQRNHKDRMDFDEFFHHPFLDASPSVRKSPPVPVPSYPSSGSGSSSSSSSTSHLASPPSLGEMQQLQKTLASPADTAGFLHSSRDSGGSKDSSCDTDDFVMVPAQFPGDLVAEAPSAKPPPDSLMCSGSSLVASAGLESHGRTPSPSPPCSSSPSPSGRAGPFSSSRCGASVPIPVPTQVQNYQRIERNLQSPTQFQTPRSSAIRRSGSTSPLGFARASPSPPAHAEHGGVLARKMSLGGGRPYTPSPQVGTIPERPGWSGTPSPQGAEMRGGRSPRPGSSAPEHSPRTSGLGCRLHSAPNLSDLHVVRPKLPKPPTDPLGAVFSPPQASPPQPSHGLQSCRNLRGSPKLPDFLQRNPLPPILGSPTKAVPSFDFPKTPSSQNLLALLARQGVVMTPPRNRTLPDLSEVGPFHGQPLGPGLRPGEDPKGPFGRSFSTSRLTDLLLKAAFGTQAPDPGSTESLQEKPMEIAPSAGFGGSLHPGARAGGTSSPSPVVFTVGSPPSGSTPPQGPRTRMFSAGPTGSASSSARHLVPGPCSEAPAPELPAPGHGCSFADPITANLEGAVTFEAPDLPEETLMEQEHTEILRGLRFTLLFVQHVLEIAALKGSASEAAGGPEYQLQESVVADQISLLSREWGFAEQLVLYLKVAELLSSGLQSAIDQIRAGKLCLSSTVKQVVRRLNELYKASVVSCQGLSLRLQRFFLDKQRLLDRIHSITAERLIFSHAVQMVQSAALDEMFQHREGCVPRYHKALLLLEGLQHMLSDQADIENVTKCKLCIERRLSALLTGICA
Sequence of ULK1/Atg13 kinase complex (O75143 whole entry partner): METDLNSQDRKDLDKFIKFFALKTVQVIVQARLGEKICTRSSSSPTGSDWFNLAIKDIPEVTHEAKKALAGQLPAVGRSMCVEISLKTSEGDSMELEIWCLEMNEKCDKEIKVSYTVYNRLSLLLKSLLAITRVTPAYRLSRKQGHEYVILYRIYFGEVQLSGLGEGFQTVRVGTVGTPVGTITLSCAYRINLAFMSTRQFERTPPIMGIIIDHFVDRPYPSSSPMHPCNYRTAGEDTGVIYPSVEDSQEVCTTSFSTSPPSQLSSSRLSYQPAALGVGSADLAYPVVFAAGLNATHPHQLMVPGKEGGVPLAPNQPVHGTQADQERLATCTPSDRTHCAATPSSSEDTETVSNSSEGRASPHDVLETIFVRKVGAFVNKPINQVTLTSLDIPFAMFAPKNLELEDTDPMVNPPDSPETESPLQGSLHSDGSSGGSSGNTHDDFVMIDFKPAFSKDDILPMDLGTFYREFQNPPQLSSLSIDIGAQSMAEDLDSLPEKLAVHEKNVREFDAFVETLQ
Sequence of protein kinase CDK7 (P50613 whole entry): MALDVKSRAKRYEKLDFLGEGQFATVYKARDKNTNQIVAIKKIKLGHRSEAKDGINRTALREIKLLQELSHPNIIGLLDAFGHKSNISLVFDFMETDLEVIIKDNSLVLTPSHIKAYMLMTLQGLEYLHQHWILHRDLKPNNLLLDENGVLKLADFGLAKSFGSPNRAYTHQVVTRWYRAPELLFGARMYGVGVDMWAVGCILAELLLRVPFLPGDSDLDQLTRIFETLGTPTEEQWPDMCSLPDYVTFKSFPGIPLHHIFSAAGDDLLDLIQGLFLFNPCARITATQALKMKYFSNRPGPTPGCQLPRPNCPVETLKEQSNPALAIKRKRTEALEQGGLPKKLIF
Sequence of protein kinase CDK7 (P51946 whole entry partner): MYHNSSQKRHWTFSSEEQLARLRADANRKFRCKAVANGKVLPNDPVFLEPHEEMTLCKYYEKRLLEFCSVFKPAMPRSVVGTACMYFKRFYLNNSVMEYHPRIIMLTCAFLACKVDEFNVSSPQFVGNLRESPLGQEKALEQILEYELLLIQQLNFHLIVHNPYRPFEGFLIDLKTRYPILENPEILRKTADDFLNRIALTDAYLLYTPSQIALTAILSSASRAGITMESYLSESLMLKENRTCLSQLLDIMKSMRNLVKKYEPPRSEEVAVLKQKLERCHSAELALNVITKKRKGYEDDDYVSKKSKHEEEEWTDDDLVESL
Sequence of protein kinase CDK7 (P51948 whole entry partner): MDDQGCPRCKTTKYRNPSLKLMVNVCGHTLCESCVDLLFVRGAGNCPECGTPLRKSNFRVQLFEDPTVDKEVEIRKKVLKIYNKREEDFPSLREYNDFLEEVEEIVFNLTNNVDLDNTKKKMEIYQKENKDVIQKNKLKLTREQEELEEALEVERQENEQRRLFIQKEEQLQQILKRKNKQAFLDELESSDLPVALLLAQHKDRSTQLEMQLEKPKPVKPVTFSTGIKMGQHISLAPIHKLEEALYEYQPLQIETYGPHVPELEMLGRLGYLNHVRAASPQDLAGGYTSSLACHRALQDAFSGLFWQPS

Row | Compound | IC50 [1] | inhibition of protein kinase CDK7 (potency) (protein kinase CDK7) | tumor weight / tumor volume, combination with trametinib versus trametinib alone (MiaCaPa-2 cancer cells)
1 | CC(N)C1CCC(C(=O)Cc2ccnc3[nH]c(-c4cccc(C(F)(F)F)c4)cc23)CC1 (stereo not shown) [MSK-A194] | 0.0292 µM | – | –
2 | C[C@@H](N)C1CCC(C(=O)Nc2ccnc3[nH]c(-c4ccccn4)cc23)CC1 (stereo partly shown) [MSK-A172, (1r,4r)-4-(1-aminoethyl)-N-(2-(pyridin-2-yl)-1H-pyrrolo [2,3-b]pyridin-4-yl)cyclohexanecarboxamide] | 0.11 µM | – | –
3 | CC(N)C1CCC(C(=O)Nc2ccnc3[nH]c(-c4ncc[nH]4)cc23)CC1 (stereo not shown) [MSK-A157, (1r,4r)-N-(2-(1H-imidazol-2-yl)-1H-pyrrolo[2,3-b]pyridin-4-yl)-4-(1-aminoethyl)cyclohexanecarboxamide] | 0.073 µM | – | –
4 | C[C@@H](N)C1CCC(C(=O)Nc2ccnc3occc23)CC1 (stereo partly shown) [MSK-A091, (1r,4r)-4-(1-aminoethyl)-N-(furo[2,3-b]pyridin-4-yl)cyclohexanecarboxamide] | 2.2 µM | – | –
5 | CC(N)C1CCC(C(=O)Nc2ccnc3[nH]c(-c4ccc(F)cc4)cc23)CC1 (single isomer, unassigned) [MSK-A184_peak 2, (1r,4r)-4-(1-aminoethyl)-N-(2-(4-fluorophenyl)-1H-pyrrolo[2,3-b]pyridin-4-yl)cyclohexanecarboxamide] | 0.0389 µM | – | –
6 | CC(N)C1CCC(C(=O)Cc2ccnc3[nH]c(-c4cccc(F)c4)cc23)CC1 (stereo not shown) [MSK-A191] | 0.0206 µM | low nM potency | –
7 | COC(=O)[C@@H](N)[C@H]1CC[C@H](C(=O)Nc2ccnc3[nH]c(-c4ccccc4)cc23)CC1 [MSK-A182, (S)-methyl 2-amino-2-((1r,4S)-4-((2-phenyl-1H-pyrrolo[2,3-b]pyridin-4-yl)carbamoyl)cyclo-hexyl)acetate] | 0.0229 µM | – | –
8 | CC(N)C1CCC(C(=O)Nc2ccnc3[nH]c(-n4cccn4)cc23)CC1 (stereo not shown) [MSK-A173, (1r,4r)-N-(2-(1H-pyrazol-1-yl)-1H-pyrrolo[2,3-b]pyridin-4-yl)-4-(1-aminoethyl)cyclohexanecarboxamide] | 0.63 µM | – | –
9 | COc1ccc(-c2cc3c(CC(=O)C4CCC(C(C)N)CC4)ccnc3[nH]2)cc1 (stereo not shown) [MSK-A188] | 0.0194 µM | – | –
10 | CC(N)C1CCC(C(=O)Nc2ccnc3[nH]c(-c4nccs4)cc23)CC1 (stereo not shown) [MSK-A178] | 0.047 µM | – | –
11 | CC(N)C1CCC(C(=O)Nc2ccnc3[nH]c(-c4nccn4C)cc23)CC1 (stereo not shown) [MSK-A171, (1r,4r)-4-(1-aminoethyl)-N-(2-(1-methyl-1H-imidazol-2-yl)-1H-pyrrolo[2,3-b]pyridin-4-yl)cyclohexanecarboxamide] | 1.45 µM | – | –
12 | CC(N)C1CCC(C(=O)Nc2ccnc3[nH]c(-c4ccsc4)cc23)CC1 (single isomer, unassigned) [MSK-A176-peak 2, (1r,4r)-4-(1-aminoethyl)-N-(2-(thiophen-3-yl)-1H-pyrrolo[2,3-b]pyridin-4-yl)cyclohexanecarboxamide] | 0.0236 µM | – | –
13 | CC(N)C1CCC(C(=O)Nc2ccnc3[nH]c(-c4ccc(F)cc4)cc23)CC1 (single isomer, unassigned) [MSK-A184_peak 1, (1r,4r)-4-(1-aminoethyl)-N-(2-(4-fluorophenyl)-1H-pyrrolo[2,3-b]pyridin-4-yl)cyclohexanecarboxamide] | 0.0155 µM | – | –
14 | CC(N)C1CCC(C(=O)Nc2ccnc3[nH]c(-c4cccs4)cc23)CC1 (stereo not shown) [MSK-A177] | 0.054 µM | – | –
15 | CC(N)C1CCC(C(=O)Nc2ccnc3[nH]c(-c4ncco4)cc23)CC1 (stereo not shown) [MSK-A202] | 0.156 µM | – | –
16 | Cc1cccc(-c2cc3c(CC(=O)C4CCC(C(C)N)CC4)ccnc3[nH]2)c1 (stereo not shown) [MSK-A192] | 0.0202 µM | – | –
17 | C[C@@H](N)C1CCC(C(=O)Nc2ccnc3[nH]c(-c4ccccc4)cc23)CC1 (stereo partly shown) [MSK-A170, (1r,4r)-4-(1-aminoethyl)-N-(2-phenyl-1H-pyrrolo[2,3-b]pyridin-4-yl)cyclohexanecarboxamide] | 0.018 µM | – | –
18 | CC(N)C1CCC(C(=O)Nc2ccnc3[nH]c(-c4ccc5ccccc5c4)cc23)CC1 (stereo not shown) [MSK-A190] | 0.0238 µM | – | –
19 | COC(=O)[C@H](N)[C@H]1CC[C@H](C(=O)Nc2ccnc3[nH]c(-c4ccccc4)cc23)CC1 [MSK-A183, (R)-methyl 2-amino-2-((1r,4R)-4-((2-phenyl-1H-pyrrolo[2,3-b]pyridin-4-yl)carbamoyl)cyclo-hexyl)acetate] | 0.185 µM | – | –
20 | CC(N)C1CCC(C(=O)Cc2ccnc3[nH]c(-c4cccc(C5CC5)c4)cc23)CC1 (stereo not shown) [MSK-A193] | 0.0263 µM | – | –
21 | CC(N)C1CCC(C(=O)Cc2ccnc3[nH]c(-c4ccc(F)cc4)cc23)CC1 (stereo not shown) [MSK-A184] | 0.0189 µM | low nM potency | –
22 | C[C@@H](N)C1CCC(C(=O)Nc2ccnc3[nH]c(-c4ccccc4)cc23)CC1 (single isomer, unassigned) [MSK-A170-PEAK2] | – | – | significantly improved results
23 | CC(N)C1CCC(C(=O)Nc2ccnc3[nH]c(-c4ccsc4)cc23)CC1 (single isomer, unassigned) [MSK-A176-peak 1, (1r,4r)-4-(1-aminoethyl)-N-(2-(thiophen-3-yl)-1H-pyrrolo[2,3-b]pyridin-4-yl)cyclohexanecarboxamide] | 0.0562 µM | – | –
24 | CC(N)C1CCC(C(=O)Nc2ccnc3[nH]c(-c4ccsc4)cc23)CC1 (stereo not shown) [MSK-A176] | 0.005 µM | low nM potency | –
25 | CC(N)C1CCC(C(=O)Nc2ccnc3[nH]c(-c4cccc(F)c4)cc23)CC1 (single isomer, unassigned) [MSK-A191_peak 2, (1r,4r)-4-(1-aminoethyl)-N-(2-(3-fluorophenyl)-1H-pyrrolo[2,3-b]pyridin-4-yl)cyclohexanecarboxamide] | 0.0591 µM | – | –
26 | CC(N)C1CCC(C(=O)Nc2ccnc3[nH]c(-c4cscn4)cc23)CC1 (stereo not shown) [MSK-A199] | 0.109 µM | – | –
27 | CC(N)C1CCC(C(=O)Nc2ccnc3[nH]c(-c4cccc(F)c4)cc23)CC1 (single isomer, unassigned) [MSK-A191_peak 1, (1r,4r)-4-(1-aminoethyl)-N-(2-(3-fluorophenyl)-1H-pyrrolo[2,3-b]pyridin-4-yl)cyclohexanecarboxamide] | 0.0408 µM | – | –
28 | CC(N)C1CCC(C(=O)Cc2ccnc3[nH]c(-c4ccc(C#N)cc4)cc23)CC1 (stereo not shown) [MSK-A189] | 0.0183 µM | low nM potency | –
29 | CC(N)C1CCC(C(=O)Nc2ccnc3[nH]c(-c4ncccn4)cc23)CC1 (stereo not shown) [MSK-A180] | 2.38 µM | – | –
30 | CC(N)C1CCC(C(=O)Nc2ccnc3[nH]c(-n4ccnc4)cc23)CC1 (stereo not shown) [MSK-A181, (1r,4r)-N-(2-(1H-imidazol-1-yl)-1H-pyrrolo[2,3-b]pyridin-4-yl)-4-(1-aminoethyl)cyclohexanecarboxamide] | 0.515 µM | – | –
